Laboratory results reported in patent US20240150286A1, “PEROXISOME PROLIFERATOR-ACTIVATED RECEPTOR GAMMA (PPARy) LIGANDS AND METHODS OF USE AS TREATMENTS FOR INSULIN RESISTANCE, OBESITY, FATTY LIVER DISEASE, AND TYPE 2 DIABETES” (The Board of Regents of the University of Oklahoma, priority 2022, published 2024).

Assays:
[1] = test system: diet-induced obesity (DIO) mice; test: Body weight, body composition and indirect calorimetry in DIO mice; type: in vivo, mouse
Experimental: (§1) C57BL/6J male mice were obtained from Jackson laboratory (Bar Harbor, ME) and maintained on a 12 h light (6:00 AM to 6:00 PM)—12 h dark (6:00 PM to 6:00 AM) cycle at an ambient temperature of 22±1° C. All animals had access to diet and water ad libitum. All procedures involving animals were approved by the Institutional Animal Care and Use Committee of the University of Oklahoma Health Science Center. All experiments were performed with age-matched male mice. The mice were fed a high-fat diet (HFD) (60% kcal fat, Bio-Serv, NJ, USA) starting from the age of 6 weeks until study end. […] Food intake was determined manually by measuring the amount of input food subtracting the amount of the food remaining in the food hopper and the crumbs on the bedding of the cage each day for three days during the 4th week of the treatment. Packed cell volume (PCV) was measured with blood drawn from tail on a LW Scientific E8 centrifuge (LW Scientific, Lawrenceville, Georgia, USA) microhematocrit centrifuge at the end of study. For all other measurements, the blood was drawn at the time of euthanization.
Body lean and fat composition was determined by EchoMRI test.
The mice were individually housed in chambers of a Promethion Core Monitoring system (Sable Systems, Las Vegas, NV, USA). After a 1-day acclimation period, their oxygen consumption and carbon dioxide production were measured for the next three consecutive days. The respiratory exchange ratio and energy expenditure were calculated using standard equations

liver of DIO mice = test: Liver steatosis in DIO mice (H&E histology, qRT-PCR); type: in vivo, mouse; conditions: vs vehicle
Experimental: as §1
Liver, heart, bone, adipose tissues were dissected and immediately fixed in 4% paraformaldehyde (Sigma-Aldrich), paraffin embedded, and stained with hematoxylin and eosin. For Immunofluorescence staining, the eWAT and iWAT paraffin sections were incubated with primary antibody (rabbit polyclonal to F4/80 [1:500, Cat #: 70076], Cell Signaling Technology) overnight at 4° C. after deparaffinization. […]
Total RNA (2 μg) was isolated from tissues or cells using TRIzol reagents (Life Technologies) and reverse transcribed using oligo d(T) primers (New England Biosystems) and SuperScript IV reverse transcription kit (Applied Biosystems). qPCR was performed in a CFX96 Touch Real-Time PCR detection system using SYBR Green mix (Applied Biosystems). […] Relative mRNA expression was determined by the ΔΔCt method normalized to TBP mRNA. […]

human PPARγ2 = biological target: T1, human PPARγ2 (Homo sapiens, UniProt P37231); test: PPARγ transactivation reporter assay (3×PPRE-luc) in HEK-293 cells; type: cell-based
T1 construct: host or cells: HEK-293
T1 sequence (P37231 1-505): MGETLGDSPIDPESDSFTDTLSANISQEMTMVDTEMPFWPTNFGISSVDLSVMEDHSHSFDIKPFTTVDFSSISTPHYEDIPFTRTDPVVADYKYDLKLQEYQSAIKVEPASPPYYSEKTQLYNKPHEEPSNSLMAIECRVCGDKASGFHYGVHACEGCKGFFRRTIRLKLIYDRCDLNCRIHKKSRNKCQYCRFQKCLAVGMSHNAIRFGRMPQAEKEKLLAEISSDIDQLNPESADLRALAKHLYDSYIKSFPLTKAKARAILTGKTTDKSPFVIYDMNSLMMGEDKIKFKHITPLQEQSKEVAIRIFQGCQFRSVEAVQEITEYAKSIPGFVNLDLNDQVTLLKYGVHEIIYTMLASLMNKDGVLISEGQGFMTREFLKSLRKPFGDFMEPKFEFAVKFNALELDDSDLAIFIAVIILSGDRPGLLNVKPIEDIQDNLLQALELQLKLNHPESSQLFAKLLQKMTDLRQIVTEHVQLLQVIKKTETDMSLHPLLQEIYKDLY
Experimental: HEK-293 cells were seeded overnight, co-transfected with plasmids expressing human PPARγ2 and 3×PPRE-luc (both from Addgene) followed by incubation for 16 h, and then re-seeded in a 384-well plate and incubated for 24 h. Compounds were added and then incubated another 24 h. Luciferase activity was analyzed in each well using Bright-Glo Luciferase kit (Promega).

[2] = test system: adipose tissues (iWAT, eWAT, BAT) of DIO mice; test: Adipose tissue analyses in DIO mice (pS273 Western, qRT-PCR, UCP1, histology, CLS); type: in vivo, mouse
Experimental: as §1
Liver, heart, bone, adipose tissues were dissected and immediately fixed in 4% paraformaldehyde (Sigma-Aldrich), paraffin embedded, and stained with hematoxylin and eosin. For Immunofluorescence staining, the eWAT and iWAT paraffin sections were incubated with primary antibody (rabbit polyclonal to F4/80 [1:500, Cat #: 70076], Cell Signaling Technology) overnight at 4° C. after deparaffinization. The slides were washed thrice with PBS with 0.2% Triton and then incubated in secondary antibody, Alexa 488 anti-rabbit (1:500, Jackson ImmunoResearch, PA) for 1.5 h at room temperature. Tissue sections were imaged on the Olympus Fluoview 1000 laser-scanning confocal microscope (Center Valley, PA).
Total RNA (2 μg) was isolated from tissues or cells using TRIzol reagents (Life Technologies) and reverse transcribed using oligo d(T) primers (New England Biosystems) and SuperScript IV reverse transcription kit (Applied Biosystems). qPCR was performed in a CFX96 Touch Real-Time PCR detection system using SYBR Green mix (Applied Biosystems). The amplification program was as follows: initial denaturation at 95° C. for 15 min, followed by 40 cycles of 95° C. for 15 s, 60° C. for 1 min, and 40° C. for 30 s. Relative mRNA expression was determined by the ΔΔCt method normalized to TBP mRNA. The sequences of primers used in this study were shown in Table 1 in U.S. Provisional Application Ser. No. 63/419,049, the entirety of which is incorporated herein by reference.
Proteins were extracted with RIPA buffer containing protease and phosphatase inhibitors (Thermo) and then centrifuged for 10 min at 10,000 g. A 30 μg sample of protein was separated on a 10% SDS polyacrylamide gel and transferred to polyvinylidene-fluoride membrane for 1 h at 4° C. at 40 V. The membrane was blocked in TBS (10 mm Tris-HCl, pH 7.4, 150 mm NaCl) containing 5% non-fat dry milk for 1 h at room temperature and was probed with primary antibodies followed by the appropriate HRP-conjugated secondary antibodies (Anti-rabbit IgG, #7074, or Anti-mouse IgG, #7076, 1:5000 Cell Signaling Technology). The primary antibodies used were: anti-Ser-273 PPARγ (bs-4888R, Bioss Antibodies), anti-PPARγ antibody (sc-271392, Santa Cruz Biotechnology), anti-UCP1 (14670S, Cell Signaling Technology, Beverly, MA, USA).

[3] = SVF of inguinal and epididymal adipose tissues, DIO mice
[4] = eWAT of DIO mice, 15 mg/kg i.p. daily 4 weeks

3×PPRE-luc reporter activity as % of potency of Rosi (human PPARγ2; HEK293, PPARγ2 + 3×PPRE-luc, relative to Rosi): ~15% | 3×PPRE-luc reporter activity as % of potency of UHC1 (human PPARγ2; HEK293, PPARγ2 + 3×PPRE-luc, relative to UHC1): ~33%
SMILES: Cc1c(C)n(Cc2ccc(-c3ccccc3C(=O)O)cc2)c2ccc(C(=O)NCc3cccc(O)c3)cc12 [WO95E, 4′-((5-((3-hydroxybenzyl)carbamoyl)-2,3-dimethyl-1H-indol-1-yl)methyl)-[1,1′-biphenyl]-2-carboxylic acid]
body weight ([1]; DIO mice on HFD, 15 mg/kg i.p. daily 4 weeks): reduced body weight | fat mass (EchoMRI) ([1]; DIO mice, 15 mg/kg i.p. daily): significant decrease | lean mass (EchoMRI) ([1]; DIO mice, 15 mg/kg i.p. daily): no noticeable change | daily food intake ([1]; DIO mice, 4th week of treatment, vs vehicle): same amount of daily food intake | average oxygen consumption (VO2) ([1]; DIO mice, indirect calorimetry after 4-week treatment): higher | mean energy expenditure ([1]; DIO mice, indirect calorimetry, vs vehicle): significantly heightened | average carbon dioxide production (VCO2) ([1]; DIO mice, indirect calorimetry, p value 0.08 for daytime): increased | respiratory exchange ratio (RER) ([1]; DIO mice, vs vehicle, data not shown): similar | overall activity (distance) ([1]; DIO mice, difference statistically insignificant): upward trend | number of lipid droplets in the liver (liver of DIO mice; H&E): markedly reduced | expression levels of PEPCK and G6PC in liver (liver of DIO mice): significantly decreased | lipogenic genes FASN, SCD-1, ACC in liver (liver of DIO mice): down-regulated | PPARγ transactivation reporter activation (in words) (human PPARγ2; HEK293, PPARγ2 + 3×PPRE-luc): increased the reporter activity only weakly | 3×PPRE reporter activation with GW9662 co-treatment (human PPARγ2; compound 10 μM, GW9662 5 μM, HEK293): retained its moderate ability to activate the reporter | PPARγ S273 phosphorylation in iWAT ([2]; DIO mice, 15 mg/kg i.p. daily 4 weeks, Western blot): markedly inhibited | mRNA levels of browning/thermogenic genes (Prdm16, Cidea, Ppara, CPT1a, UCP1, Cox5b, PGC1α) in iWAT ([2]; DIO mice, 15 mg/kg i.p. daily 4 weeks, vs vehicle): significantly increased | adipocyte size in eWAT and iWAT ([2]; DIO mice, H&E sections, vs vehicle): significantly smaller | UCP1 protein in iWAT and eWAT ([2]; DIO mice, Western blotting): dramatic induction | UCP1 protein in BAT ([2]; DIO mice, data not shown): an increase | mRNA levels of thermogenic genes in BAT ([2]; DIO mice, data not shown): increased mRNA expression levels of most of these genes | areas of crown-like structures (CLS) in iWAT and eWAT ([2]; DIO mice, vs vehicle): dramatically reduced | mRNA levels of M2 macrophage markers (IL4, IL10, Mg1I) [2, 3]: up-regulated or unchanged | mRNA levels of pan-macrophage markers (CD68, F4/80) [2, 3]: significantly decreased | genes involved in lipogenesis or adipogenesis [2, 4]: inhibited | mRNA levels of S273 phosphorylation-repressed genes (Adiponectin, Adipsin, selenbp1, Car3, Ddx-17, Acyl, Rarres2, Cidec) [2, 4]: up-regulated | mRNA levels of proinflammatory M1 mediators (TNFα, IL1b, IL-6, mcp-1) ([2]; iWAT and eWAT, DIO mice): down-regulated
